In PubChem BioAssay AID179 (DTP/NCI, 2004):
Activity calls are given as the source filed them.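 The calls were made as follows: active = compounds giving half or more protection of infected cells from virus-caused growth loss, again on retest; inactive = the rest.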

System: CEM cells HIV-1 protection, formazan growth assay
Assay: NCI AIDS Antiviral Assay
Conditions: for IC50: measured here: growth of uninfected CEM cells
Summary of the method: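 Five concentrations of each compound were applied to infected and uninfected human CEM cells. Protection from HIV-1 was judged from growth measured with a soluble formazan assay.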

| Structure (SMILES) | EC50 | IC50 | outcome |
| --- | --- | --- | --- |
| O=C(Nc1nc2ncn(CCOC(=O)c3ccccc3)c2c(=O)[nH]1)c1ccccc1 | > 85.1 µM | 61.7 µM | – |
| N=C1/C(=C/c2ccco2)C(=O)N=C2SC=NN12 | > 200 µM | > 200 µM | – |
| O=C1[C@@H]2C(c3ccncc3)=NO[C@@H]2C(=O)N1c1ccc(Cc2ccc(N3C(=O)[C@H]4C(c5ccncc5)=NO[C@H]4C3=O)cc2)cc1 | > 12 µM | > 12 µM | – |
| CS(=O)(=O)OC[C@@H]1OCO[C@H]1COS(C)(=O)=O | > 200 µM | > 200 µM | – |
| COc1c(Sc2c(SCSc3cnc4ccccc4c3Sc3cnc4ccccc4c3OC)cnc3ccccc23)cnc2ccccc12 | > 100 µM | > 100 µM | – |
| CN1C(=O)NC(C=O)(CCc2ccccc2)C1=O (stereo unspecified) | – | – | inactive |
| COc1cccc(C=C(C#N)C#N)c1 | > 708 µM | 115 µM | – |
| C=CC[C@]12CC(=O)OC(C=CC13OCCO3)C2 | > 200 µM | > 200 µM | – |
| NCCSS(=O)(=O)CCN | > 363 µM | – | – |
| O=C(CC1(O)C(=O)Nc2ccc([N+](=O)[O-])cc21)c1ccc(Br)cc1 (stereo unspecified) | > 41.7 µM | > 41.7 µM | – |
| O=C1c2ccccc2C2(c3ccc(Cl)cc3)N[C@H]3CCCC[C@@H]3N12 (stereo partly specified) | > 200 µM | 141 µM | – |
| Cc1cc(S(=O)(=O)O)c(NC(=O)C(=O)C2C=CCS2(=O)=O)cc1Cl (stereo unspecified) | > 631 µM | > 631 µM | – |
| CCCCCCCCCCCCCCCCOC1OC(CCSSC2OC(OCCCCCCCCCCCCCCCC)C(O)C(O)C2O)C(O)C(O)C1O (stereo unspecified) | > 3.24 µM | > 3.24 µM | – |
| Cn1c2ccccc2n2c(=O)c3c(c(C#N)c12)CCCC3 | > 7.24 µM | > 7.24 µM | – |
| Cc1ccc(S(=O)(=O)N(CC(=O)O)c2c[nH]c(C(=O)O)c2)cc1 | > 200 µM | > 200 µM | – |
| COc1cccc2c1C1(O)C2CCCCCCCCCC12OCCCO2 (stereo unspecified) | > 91.2 µM | 69.2 µM | – |
| CC(/C=C/C(=O)c1sc(C(N)=S)nc1C)=C\c1ccccc1 | > 79.4 µM | > 79.4 µM | – |
| O=c1[nH]c(Nc2nc3ccccc3[nH]2)nc2c1CCC2 | > 200 µM | > 200 µM | – |
| O=c1ccc2cc3ccc4cccc5ccc(c2o1)c3c45 | – | – | inactive |
| CSc1ncnc2c1ncn2CCC#N | > 200 µM | > 200 µM | – |
| CC(C)N1C(C)[C@@H](c2ccccc2)O[P@@]1(=O)CC1=CCCCC1 (stereo partly specified) | – | – | inactive |
| O=C1C(O)=C(c2ccccc2C(=O)O)C(=O)C(O)=C1c1ccccc1C(=O)O | > 110 µM | > 110 µM | – |

| Structure (SMILES) | EC50 | IC50 | outcome |
| --- | --- | --- | --- |
| Cc1ccc(-c2nc3cc(N4CCN(C)CC4)c(F)cc3[nH]2)cc1 | > 200 µM | 26.3 µM | – |
| COc1ccc(NC(=O)CC(=O)N/N=C(/C)c2cc3cc(N=Nc4ccccc4Cl)ccc3oc2=O)cc1 | > 9.77 µM | > 9.77 µM | – |
| CCOc1ccc2c(C)cc(=O)oc2c1 | > 66.1 µM | > 66.1 µM | – |
| COC1=CC(=O)C2[C@H]3Cc4ccccc4[C@H]3C2(C)C1=O (stereo partly specified) | > 51.3 µM | > 51.3 µM | – |
| COc1ccc(-c2cc3ccccc3[nH]c2=O)cc1OC | – | – | inactive |
| Cc1ccc(S(=O)(=O)N/N=C2\C=C[C@]3(CC2)C(=O)N(C)c2ccccc23)cc1 | > 200 µM | 102 µM | – |
| COc1ccc(CCN2C(=O)C(=O)c3ccccc32)cc1OC | > 83.2 µM | 47.9 µM | – |
| Cn1c(=O)n2n(c1=O)C1C3C4C3C3C5(COCC135)C42 (stereo unspecified) | > 200 µM | > 200 µM | – |
| COc1cc2c(c(OC)c1OC)C1CCCCC1SCC2O (stereo unspecified) | > 398 µM | 77.6 µM | – |
| Cc1ccc2c(c1)C1(SCCC(=O)N1c1ccc(Cl)cc1)C(=O)N2 (stereo unspecified) | > 191 µM | 91.2 µM | – |
| Cc1ccc(NC(=O)C(=O)Cc2cccc[n+]2[O-])cc1C | > 91.2 µM | > 91.2 µM | – |
| Oc1cc(N2CCCC2)ccc1/C=N/N1C(=S)N(c2ccccc2)C(=Nc2ccccc2)C1=Nc1ccccc1 | > 100 µM | > 100 µM | – |
| O=C1CC2(C[C@@H]3CCCCCCCCC[C@@H](C3)C2)N1 (stereo partly specified) | > 200 µM | 40.7 µM | – |
| O=C1c2cccc3cc([N+](=O)[O-])cc(c23)C(=O)N1CCCN1CCN(CCCNc2ccc3ncn4c5ccccc5c(=O)c2c34)CC1 | > 0.00501 µM | 0.0049 µM | – |
| Cc1cc2c(cc1C)C(=O)C1(C2)Cc2c(C)ccc(C)c2C1=O (stereo unspecified) | > 100 µM | > 100 µM | – |
| COc1c2c(cc3ccc(=O)oc13)CCO2 | > 204 µM | > 204 µM | – |
| CNP(=S)(Oc1cc(Cl)c(Cl)cc1Cl)N1CCN(c2ccc(Cl)cc2)CC1 (stereo unspecified) | > 36.3 µM | 21.4 µM | – |
| CC1=NN(c2ccccc2)C(=O)/C1=C1/C(=O)N(c2ccccc2)N=C1C | > 200 µM | > 200 µM | – |
| c1ccc(C2=NN2c2ccccc2)cc1 | – | – | inactive |
| CC(=O)NC1C(OCc2ccccc2)OC(CO)C(O)C1OCC(=O)N1CCCC1C(=O)N[C@@H](CCC(=O)NCCNCCNc1c2ccccc2nc2cccc([N+](=O)[O-])c12)C(N)=O (stereo partly specified) | > 100 µM | 1.51 µM | – |
| CN(C)CCCNC(=O)c1cc(NC(=O)c2cc(NC(=O)[C@H]3C[C@@H]3C(=O)Nc3cc(C(=O)Nc4cc(C(=O)NCCCN(C)C)n(C)c4)n(C)c3)cn2C)cn1C | – | – | inactive |
| CS(=O)(=O)c1cnnc2ccccc12 | > 513 µM | > 513 µM | – |

| Structure (SMILES) | EC50 | IC50 | outcome |
| --- | --- | --- | --- |
| CCOc1ccccc1NC(=O)CCC(=O)NN | > 145 µM | > 145 µM | – |
| CCc1c(C)c(C#N)c(=S)n(C2OC(COC(C)=O)C(OC(C)=O)C(OC(C)=O)C2OC(C)=O)c1-c1ccccc1 (stereo unspecified) | > 200 µM | 102 µM | – |
| CC1=CCC2(C#N)CCC1C2=O (stereo unspecified) | > 251 µM | > 251 µM | – |
| O=C1CCN2C(=O)CCN12 | > 1780 µM | > 1780 µM | – |
| O=C(/C=C/c1ccc(O)c(O)c1)OC(Cc1ccc(O)c(O)c1)C(=O)O (stereo unspecified) | > 200 µM | 26.3 µM | – |
| CC(=O)OCC1OC(Nc2cc(=O)n(C)c(=O)[nH]2)C(OC(C)=O)C(OC(C)=O)C1OC(C)=O (stereo unspecified) | – | – | inactive |
| Nc1nc2c(ncn2C2C=CC(COS(N)(=O)=O)C2)c(=O)[nH]1 (stereo unspecified) | > 200 µM | > 200 µM | – |
| N#CCC(=O)N/N=C\c1ccc2c(c1)OCO2 | > 200 µM | > 200 µM | – |
| CCOC1NC(/N=C/c2ccc(OC)cc2)=C(C#N)C1C#N (stereo unspecified) | > 200 µM | 24.5 µM | – |
| COC(=O)CCCC=C(c1cc(Cl)c(OC)c(C2=NC(C)(C)CO2)c1)c1cc(Cl)c(OC)c(C2=NC(C)(C)CO2)c1 | – | – | inactive |
| Cc1ccsc1C(=S)Nc1ccc(Cl)c(C(=O)OC(C(C)C)C(C)C)c1 | 0.309 µM | 21.4 µM | – |
| O=C1Nc2ccccc2/C1=C/c1cc(Cl)cc(Cl)c1O (tested in a mixture with another compound) | > 200 µM | 44.7 µM | – |
| CC(=O)/C(=C/c1ccc(N(C)C)cc1)C(=O)c1ccccc1 | > 6.76 µM | > 6.76 µM | – |
| Cc1nnc(N)nc1/C=C\c1ccc(Cl)cc1Cl | > 200 µM | 50.1 µM | – |
| Cc1ccc(S(=O)(=O)SSSSS(=O)(=O)c2ccc(C)cc2)cc1 | > 30.9 µM | > 30.9 µM | – |
| COc1cc2c(c(OC3OC(CO)C(O)C(O)C3O)c1)C(=O)CC(c1ccc(O)cc1)O2 (stereo unspecified) | > 200 µM | 195 µM | – |
| O=P1(c2ccccc2)CCCCC1 | 0.0631 µM | > 200 µM | – |
| CC(C)CCN(CCC(C)C)CC(=O)Nc1ccc(S(=O)(=O)c2ccc(NC(=O)CN(CCC(C)C)CCC(C)C)cc2)cc1 | > 100 µM | 1.62 µM | – |
| CCCCCCCCCCCCOP(=O)(O)OCC(N)C(=O)O (stereo unspecified) | > 200 µM | 10.2 µM | – |
| Cc1nnc(N)nc1/C=C\c1ccc(N(C)C)cc1 | > 200 µM | 3.47 µM | – |
| COc1cc(C(O)c2ccc3c(c2)OCO3)cc(OC)c1OC (stereo unspecified) | > 200 µM | 87.1 µM | – |
| O=C(O)CCSC(=S)Nc1ccc([N+](=O)[O-])cc1 | – | – | inactive |

| Structure (SMILES) | EC50 | IC50 | outcome |
| --- | --- | --- | --- |
| CCCCN(CCCC)CN1C(=O)/C(=C/c2ccc(NC(C)=O)cc2)NC1=S | > 200 µM | > 200 µM | – |
| O=C(NC1CC(NC(=O)OCc2ccccc2)C2c3ccccc3C12)OCc1ccccc1 (stereo unspecified) | – | – | inactive |
| Cn1nc2c(c1N)Cc1c(nn(C)c1N)-c1ccccc1-2 | > 200 µM | 191 µM | – |
| CC1=CC(C)C(=O)N(CC(C)N2CCCC2)C(C)=C1 (stereo unspecified) | > 191 µM | 74.1 µM | – |
| CN(C)COC(=S)SSSC(=S)OCN(C)C | 0.195 µM | 0.724 µM | – |
| NC(F)(Cc1ccccc1)C(=O)O (stereo unspecified) | > 200 µM | > 200 µM | – |
| Cc1nc(N/N=C/c2ccccc2Cl)[nH]c(=O)c1CCO | > 100 µM | > 100 µM | – |
| CC(=O)C1(C)CC(C#N)(C#N)C(C#N)=C1N (stereo unspecified) | > 200 µM | > 200 µM | – |
| CCOC(=O)c1c(-c2ccc(OC)cc2)ccn1C | > 200 µM | 28.8 µM | – |
| Cc1c(O)c(OC2OC(CO)C(O)C(O)C2O)cc2c1C=C[C@@H]1[C@@]2(C)C(=O)C[C@]2(C)[C@@H]([C@@](C)(O)C(O)/C=C/C(C)(C)O)[C@H](O)C[C@@]12C (stereo partly specified) | > 200 µM | > 200 µM | – |
| O=C1CCC[C@H]2O[C@@H](COC(=O)c3ccccc3)C[C@H]2O1 | > 200 µM | > 200 µM | – |
| Cc1cc(C2(c3ccc(O)c(C)c3)OS(=O)(=O)c3ccccc32)ccc1O | – | – | inactive |
| C/C(=N/NC(=O)C[N+](C)(C)C)C(CN(C)C)C(=O)Nc1ccccc1 (stereo unspecified) | > 13.5 µM | > 13.5 µM | – |
| CCCCCCCCCCCCCCOP(=O)(O)OCCC=C(c1cc(Cl)c(O)c(C(=O)O)c1)c1cc(Cl)c(O)c(C(=O)O)c1 | > 200 µM | > 100 µM | – |
| CC(C)(C)N1C(=O)c2ccccc2C1(O)C(F)(F)F (stereo unspecified) | > 200 µM | 135 µM | – |
| O=C1CCC(N2C(=O)C3C4C=CC(CC4)C3C2=O)C(=O)N1 (stereo unspecified) | > 871 µM | > 871 µM | – |
| Cc1nnc2sc(=S)[nH]n12 | – | – | inactive |
| S=c1[nH]nc(C23CC4CC(CC(C4)C2)C3)n1-c1ccc(Cl)cc1 | > 200 µM | 23.4 µM | – |
| COC1/C=C/OC2(C)Oc3c(C)c(O)c4c(O)c(c(/C=N/N5CCOCC5)c(O)c4c3C2=O)NC(=O)C(C)=C/C=C\C(C)C(O)C(C)C(O)C(C)C(O)C1C (stereo unspecified) | > 126 µM | 72.4 µM | – |
| O=C1c2c(O)cccc2C(C(=O)CCCC(=O)C2c3cccc(O)c3C(=O)c3c(O)cccc32)c2cccc(O)c21 | > 4.79 µM | 0.794 µM | – |
| O=c1c2ccccc2ncn1COCc1ccccc1 | > 200 µM | > 200 µM | – |
